One may read the IC50 as the concentration at which inhibition is half-maximal.

One test has as its system HaCaT cells. Kind of test: Antiproliferative activity against HaCaT cells (human keratinocyte cell line). It is filed as cell-based. The settings on record: 48 h, read-out: AA IC50 (antiproliferative activity).
Another test has as its target T1, 5-LO in bovine PMNL (Bos taurus, UniProt F1MQ78).
T1 construct: The purified PMNLs were suspended at a concentration of; endogenous in cells; host or cells: polymorphonuclear leukocytes isolated from bovine blood
T1 sequence (F1MQ78 1-674): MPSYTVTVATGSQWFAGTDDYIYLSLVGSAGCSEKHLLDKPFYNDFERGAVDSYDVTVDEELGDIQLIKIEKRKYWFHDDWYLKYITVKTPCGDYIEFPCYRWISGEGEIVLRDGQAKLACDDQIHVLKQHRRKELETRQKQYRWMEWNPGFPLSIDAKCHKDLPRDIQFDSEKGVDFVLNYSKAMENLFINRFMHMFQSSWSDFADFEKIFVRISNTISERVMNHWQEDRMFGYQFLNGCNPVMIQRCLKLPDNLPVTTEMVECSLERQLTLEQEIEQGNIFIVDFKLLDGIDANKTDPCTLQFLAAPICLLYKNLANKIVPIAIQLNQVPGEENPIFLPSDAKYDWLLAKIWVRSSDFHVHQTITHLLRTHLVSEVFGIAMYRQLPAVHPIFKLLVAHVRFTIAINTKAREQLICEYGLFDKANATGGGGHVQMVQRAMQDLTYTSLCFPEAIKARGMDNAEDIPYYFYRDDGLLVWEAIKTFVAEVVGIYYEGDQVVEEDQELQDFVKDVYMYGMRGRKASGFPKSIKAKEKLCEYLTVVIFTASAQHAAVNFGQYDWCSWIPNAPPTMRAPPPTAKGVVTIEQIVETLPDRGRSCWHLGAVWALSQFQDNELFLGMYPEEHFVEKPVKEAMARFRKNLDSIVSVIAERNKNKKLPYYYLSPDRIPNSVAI
Briefly: Inhibition of 5-lipoxygenase (5-HETE and LTB4 biosynthesis) in Ca-ionophore-stimulated bovine PMNL. The settings on record: N = 3 or more. It counts as cell-based.

SMILES strings stand for the structures.

For the molecule `CC(C(=O)N(C)O)c1ccc2c(c1O)C(=O)c1c(O)cccc1C2` (stereo not drawn) [VIID, N-Hydroxy-N-methyl-2-(9,10-dihydro-1,8-dihydroxy-9-oxo-2-anthracene)propionamide], the IC50 came to 1.5 µM in the test with HaCaT cells and 4 µM against 5-LO in bovine PMNL.
In the case of `COC(=O)C(c1ccc2c(c1O)C(=O)c1c(O)cccc1C2)C(C)C` (stereo not drawn) [VIIIB, Methyl 2-(9,10-Dihydro-1,8-dihydroxy-9-oxo-2-anthracene)-3-methylbutanoate], the IC50 at 5-LO in bovine PMNL is > 30 µM.
For `COC(=O)CCCCc1ccc2c(c1O)C(=O)c1c(O)cccc1C2` [IVB, Methyl 5-(9,10-Dihydro-1,8-dihydroxy-9-oxo-2-anthracene)pentanoate], the half-inhibitory concentration (IC50) in the test on HaCaT cells was 1.8 µM; at 5-LO in bovine PMNL, > 30 µM.
For the molecule `COC(=O)CCCCCc1ccc2c(c1O)C(=O)c1c(O)cccc1C2` [VB, Methyl 6-(9,10-Dihydro-1,8-dihydroxy-9-oxo-2-anthracene) hexaonate], the concentration for half-maximal inhibition (IC50) at 5-LO in bovine PMNL is > 30 µM.

The record behind these values is patent US5922891A, “2-substituted 1,8-dihydroxy-9(10H)-anthracenone pharmaceuticals” (priority 1997, dated 1999).
